Like-named read-outs stand apart in the source and are kept apart here. Where a SMILES comes first, the peptide text is derived from it. [ ]: non-standard residue; d: D form.
Biological target: T1, PSD-95-PDZ2 (Homo sapiens, UniProt P78352)
T1 construct: 7xHis (N); made in house; host or cells: Escherichia coli B21 pLys (for the mutants, 'as previously described')
Assay: Fluorescence polarization (FP) competition assay against cyclic nNOS TAMRA probe
Format: binding
Conditions: for Ki: cyclic nNOS TAMRA probe, mean of triplicates, N.B. = not binding; for fold improved binding affinity: N-methylation; for Relative Ki (Ki mut/Ki WT): FP inhibition constant normalized to WT value

T1 sequence (P78352 160-246 limits assumed): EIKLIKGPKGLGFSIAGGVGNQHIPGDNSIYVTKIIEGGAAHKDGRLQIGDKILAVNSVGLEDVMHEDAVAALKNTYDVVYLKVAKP

Compound | Ki (FP competition) | Ki (FP competition, read-out: Ki) [µM] | Relative Ki (Ki mut/Ki WT) | further results
80 (THLEXTFTGDGTPKTIRVTQPGQ; cyclized peptide; (5)..(5) X is AlloT; (21)..(21) is D-AA) [compound 80] | N.B. | – | – | –
85 (TXLETTFTGDGTPKTIRVTQPGQ; cyclized peptide; (2)..(2) X is N-Me-H; (21)..(21) is D-AA) [compound 85] | N.B. | – | – | –
86 (THXETTFTGDGTPKTIRVTQPGQ; cyclized peptide; (3)..(3) X is N-Me-L; (21)..(21) is D-AA) [compound 86] | N.B. | – | – | –
87 (THLXTTFTGDGTPKTIRVTQPGQ; cyclized peptide; (4)..(4) X is N-Me-E; (21)..(21) is D-AA) [compound 87] | N.B. | – | – | –
90 (THLETTXTGDGTPKTIRVTQPGQ; cyclized peptide; (7)..(7) X is N-Me-F; (21)..(21) is D-AA) [compound 90] | N.B. | – | – | –
104 (THLEXTFTGDGTPKTIRVTQPGQ; cyclized peptide; (5)..(5) X is pT; (21)..(21) is D-AA) [compound 104] | N.B. | – | – | –
105 (THLETXFTGDGTPKTIRVTQPGQ; cyclized peptide; (6)..(6) X is pT; (21)..(21) is D-AA) [compound 105] | N.B. | – | – | –
108 (THLETTFTGDGTPKXIRVTQPGQ; cyclized peptide; (15)..(15) X is pT; (21)..(21) is D-AA) [compound 108] | N.B. | – | – | –
CC[C@H](C)[C@@H]1NC(=O)[C@H]([C@@H](C)O)NC(=O)[C@H](CCCCN)NC(=O)[C@@H]2CCCN2C(=O)[C@H]([C@@H](C)O)NC(=O)CNC(=O)[C@H](CC(=O)O)NC(=O)CNC(=O)[C@H]([C@@H](C)O)NC(=O)[C@H](Cc2ccccc2)NC(=O)[C@H]([C@@H](C)O)NC(=O)[C@H]([C@@H](C)O)NC(=O)[C@H](CCC(=O)O)NC(=O)[C@H](CC(C)C)NC(=O)[C@H](Cc2c[nH]cn2)NC(=O)[C@H]([C@@H](C)O)N(C)C(=O)[C@H](CCC(N)=O)NC(=O)CNC(=O)[C@H]2CCCN2C(=O)[C@H](CCC(N)=O)NC(=O)[C@H]([C@@H](C)O)NC(=O)[C@H](C(C)C)NC(=O)[C@H](CCCNC(=N)N)NC1=O [SEQ ID NO: 84] | – | – | – | fold lowered (decreased) binding affinity of the cyclic peptide (FP competition, relative to unsubstituted cyclic peptide): 5 fold
CC[C@H](C)[C@@H]1NC(=O)[C@H]([C@@H](C)O)NC(=O)[C@H](CCCCN)N(C)C(=O)[C@@H]2CCCN2C(=O)[C@H]([C@@H](C)O)NC(=O)CNC(=O)[C@H](CC(=O)O)NC(=O)CNC(=O)[C@H]([C@@H](C)O)NC(=O)[C@H](Cc2ccccc2)NC(=O)[C@H]([C@@H](C)O)NC(=O)[C@H]([C@@H](C)O)NC(=O)[C@H](CCC(=O)O)NC(=O)[C@H](CC(C)C)NC(=O)[C@H](Cc2c[nH]cn2)NC(=O)[C@H]([C@@H](C)O)NC(=O)[C@H](CCC(N)=O)NC(=O)CNC(=O)[C@H]2CCCN2C(=O)[C@H](CCC(N)=O)NC(=O)[C@H]([C@@H](C)O)NC(=O)[C@H](C(C)C)NC(=O)[C@H](CCCNC(=N)N)NC1=O [SEQ ID NO: 96] | – | 0.5 ± 0.1 | – | fold improved binding affinity (FP competition): 2 fold
CC[C@H](C)[C@@H]1NC(=O)[C@H]([C@@H](C)O)NC(=O)[C@H](CCCCN)NC(=O)[C@@H]2CCCN2C(=O)[C@H]([C@@H](C)O)NC(=O)CNC(=O)[C@H](CC(=O)O)NC(=O)CNC(=O)[C@H]([C@@H](C)O)NC(=O)[C@H](Cc2ccccc2)NC(=O)[C@H]([C@@H](C)O)NC(=O)[C@H]([C@@H](C)O)NC(=O)[C@H](CCC(=O)O)NC(=O)[C@H](CC(C)C)NC(=O)[C@H](Cc2c[nH]cn2)NC(=O)[C@H]([C@@H](C)O)NC(=O)[C@H](CCC(N)=O)NC(=O)CNC(=O)[C@H]2CCCN2C(=O)[C@H](CCC(N)=O)NC(=O)[C@H]([C@@H](C)O)N(C)C(=O)[C@H](C(C)C)NC(=O)[C@H](CCCNC(=N)N)NC1=O [SEQ ID NO: 101] | – | 0.6 ± 0.1 | – | fold improved binding affinity (FP competition): 2 fold
CC[C@H](C)[C@@H]1NC(=O)[C@H]([C@@H](C)O)NC(=O)[C@H](CCCCN)NC(=O)[C@@H]2CCCN2C(=O)[C@H]([C@@H](C)O)NC(=O)CNC(=O)[C@H](CC(=O)O)NC(=O)CNC(=O)[C@H]([C@@H](C)O)NC(=O)[C@H](Cc2ccccc2)NC(=O)[C@H]([C@@H](C)O)NC(=O)[C@H]([C@@H](C)O)NC(=O)[C@H](CCC(=O)O)NC(=O)[C@H](CC(C)C)NC(=O)[C@H](Cc2c[nH]cn2)NC(=O)[C@H]([C@@H](C)O)NC(=O)[C@H](CCC(N)=O)NC(=O)CNC(=O)[C@H]2CCCN2C(=O)[C@H](CCC(N)=O)NC(=O)[C@H]([C@@H](C)O)NC(=O)[C@H](C(C)C)NC(=O)[C@H](CCCNC(=N)N)NC1=O [SEQ ID NO: 433] | – | 1.5 ± 0.2 | – | –
CC[C@H](C)[C@@H]1NC(=O)[C@H]([C@@H](C)O)NC(=O)[C@H](CCCCN)NC(=O)[C@@H]2CCCN2C(=O)[C@H]([C@@H](C)O)NC(=O)CNC(=O)[C@H](CC(=O)O)NC(=O)CNC(=O)[C@H](Cc2c[nH]c3ccccc23)NC(=O)[C@H](Cc2ccccc2)NC(=O)[C@H]([C@@H](C)O)NC(=O)[C@H]([C@@H](C)O)NC(=O)[C@H](CCC(=O)O)NC(=O)[C@H](CC(C)C)NC(=O)[C@H](Cc2c[nH]cn2)NC(=O)[C@H]([C@@H](C)O)NC(=O)[C@H](CCC(N)=O)NC(=O)CNC(=O)[C@H]2CCCN2C(=O)[C@H](CCC(N)=O)NC(=O)[C@H]([C@@H](C)O)NC(=O)[C@H](C(C)C)NC(=O)[C@H](CCCNC(=N)N)NC1=O [compound 18] (cyclo(THLETTFWGDGTPKTIRVTQ[dP]GQ)) | – | 0.72 | 0.48 | –
CC[C@H](C)[C@@H]1NC(=O)[C@H]([C@@H](C)O)NC(=O)[C@H](CCCCN)NC(=O)[C@@H]2CCCN2C(=O)[C@H]([C@@H](C)O)NC(=O)CNC(=O)[C@H](CC(=O)O)NC(=O)CNC(=O)[C@H](CC(=O)O)NC(=O)[C@H](Cc2ccccc2)NC(=O)[C@H]([C@@H](C)O)NC(=O)[C@H]([C@@H](C)O)NC(=O)[C@H](CCC(=O)O)NC(=O)[C@H](CC(C)C)NC(=O)[C@H](Cc2c[nH]cn2)NC(=O)[C@H]([C@@H](C)O)NC(=O)[C@H](CCC(N)=O)NC(=O)CNC(=O)[C@H]2CCCN2C(=O)[C@H](CCC(N)=O)NC(=O)[C@H]([C@@H](C)O)NC(=O)[C@H](C(C)C)NC(=O)[C@H](CCCNC(=N)N)NC1=O [compound 19] (cyclo(THLETTFDGDGTPKTIRVTQ[dP]GQ)) | – | 0.95 | 0.63 | –
CC[C@H](C)[C@@H]1NC(=O)[C@H]([C@@H](C)O)NC(=O)[C@H](CCCCN)NC(=O)[C@@H]2CCCN2C(=O)[C@H]([C@@H](C)O)NC(=O)CNC(=O)[C@H](CC(=O)O)NC(=O)CNC(=O)[C@H]([C@@H](C)O)NC(=O)[C@H](Cc2ccccc2)NC(=O)[C@H]([C@@H](C)O)NC(=O)[C@H]([C@@H](C)O)NC(=O)[C@H](CCC(=O)O)NC(=O)[C@H](CCCCN)NC(=O)[C@H](Cc2c[nH]cn2)NC(=O)[C@H]([C@@H](C)O)NC(=O)[C@H](CCC(N)=O)NC(=O)CNC(=O)[C@H]2CCCN2C(=O)[C@H](CCC(N)=O)NC(=O)[C@H]([C@@H](C)O)NC(=O)[C@H](C(C)C)NC(=O)[C@H](CCCNC(=N)N)NC1=O [compound 22] (cyclo(THKETTFTGDGTPKTIRVTQ[dP]GQ)) | – | – | 0.80 | –
CC[C@H](C)[C@@H]1NC(=O)[C@H]([C@@H](C)O)NC(=O)[C@H](CCCCN)NC(=O)[C@@H]2CCCN2C(=O)[C@H]([C@@H](C)O)NC(=O)CNC(=O)[C@H](CC(=O)O)NC(=O)CNC(=O)[C@H]([C@@H](C)O)NC(=O)[C@H](Cc2ccccc2)NC(=O)[C@H]([C@@H](C)O)NC(=O)[C@H]([C@@H](C)O)NC(=O)[C@H](CCC(=O)O)NC(=O)[C@H](CC(C)C)NC(=O)[C@H](CCC(=O)O)NC(=O)[C@H]([C@@H](C)O)NC(=O)[C@H](CCC(N)=O)NC(=O)CNC(=O)[C@H]2CCCN2C(=O)[C@H](CCC(N)=O)NC(=O)[C@H]([C@@H](C)O)NC(=O)[C@H](C(C)C)NC(=O)[C@H](CCCNC(=N)N)NC1=O [compound 23] (cyclo(TELETTFTGDGTPKTIRVTQ[dP]GQ)) | – | 6.19 | 4.13 | –
CC[C@H](C)[C@@H]1NC(=O)[C@H]([C@@H](C)O)NC(=O)[C@H](CCCCN)NC(=O)[C@@H]2CCCN2C(=O)[C@H]([C@@H](C)O)NC(=O)CNC(=O)[C@H](CC(=O)O)NC(=O)CNC(=O)[C@H]([C@@H](C)O)NC(=O)[C@H](Cc2ccccc2)NC(=O)[C@H]([C@@H](C)O)NC(=O)[C@H]([C@@H](C)O)NC(=O)[C@H](CCC(=O)O)NC(=O)[C@H](CC(C)C)NC(=O)[C@H](Cc2c[nH]cn2)NC(=O)CNC(=O)[C@H](CCC(N)=O)NC(=O)CNC(=O)[C@H]2CCCN2C(=O)[C@H](CCC(N)=O)NC(=O)[C@H]([C@@H](C)O)NC(=O)[C@H](C(C)C)NC(=O)[C@H](CCCNC(=N)N)NC1=O [compound 25] (cyclo(GHLETTFTGDGTPKTIRVTQ[dP]GQ)) | – | – | 3.00 | –
CC[C@H](C)[C@@H]1NC(=O)[C@H]([C@@H](C)O)NC(=O)[C@H](CCCCN)NC(=O)[C@@H]2CCCN2C(=O)[C@H]([C@@H](C)O)NC(=O)CNC(=O)[C@H](CC(=O)O)NC(=O)CNC(=O)[C@H]([C@@H](C)O)NC(=O)[C@H](Cc2ccccc2)NC(=O)[C@H]([C@@H](C)O)NC(=O)[C@H]([C@@H](C)O)NC(=O)[C@H](CCC(=O)O)NC(=O)[C@H](CC(C)C)NC(=O)[C@H](Cc2ccc(O)cc2)NC(=O)[C@H]([C@@H](C)O)NC(=O)[C@H](CCC(N)=O)NC(=O)CNC(=O)[C@H]2CCCN2C(=O)[C@H](CCC(N)=O)NC(=O)[C@H]([C@@H](C)O)NC(=O)[C@H](C(C)C)NC(=O)[C@H](CCCNC(=N)N)NC1=O [compound 26] (cyclo(TYLETTFTGDGTPKTIRVTQ[dP]GQ)) | – | – | 0.79 | –
CC[C@H](C)[C@@H]1NC(=O)[C@H]([C@@H](C)O)NC(=O)[C@H](CCCCN)NC(=O)[C@@H]2CCCN2C(=O)[C@H]([C@@H](C)O)NC(=O)CNC(=O)[C@H](CC(=O)O)NC(=O)CNC(=O)[C@H]([C@@H](C)O)NC(=O)[C@H](Cc2ccccc2)NC(=O)[C@H]([C@@H](C)O)NC(=O)[C@H]([C@@H](C)O)NC(=O)[C@H](CCC(=O)O)NC(=O)[C@H](CC(C)C)NC(=O)[C@H](Cc2ccccc2)NC(=O)[C@H]([C@@H](C)O)NC(=O)[C@H](CCC(N)=O)NC(=O)CNC(=O)[C@H]2CCCN2C(=O)[C@H](CCC(N)=O)NC(=O)[C@H]([C@@H](C)O)NC(=O)[C@H](C(C)C)NC(=O)[C@H](CCCNC(=N)N)NC1=O [compound 27] (cyclo(TFLETTFTGDGTPKTIRVTQ[dP]GQ)) | – | – | 0.79 | –

Reference: patent US20230220021A1, “CYCLIC PEPTIDE INHIBITORS OF PSD-95 AND USES THEREOF” (University of Copenhagen, priority 2020, published 2023)
